Data as given in patent US20230357193A1, “COMPOUND CAPABLE OF INHIBITING AND DEGRADING ANDROGEN RECEPTORS, AND PHARMACEUTICAL COMPOSITIONS AND PHARMACEUTICAL USES THEREOF” (Sichuan Haisco Pharmaceutical Co., Ltd., priority 2020, published 2023).
Like-named read-outs stand apart in the source and are kept apart here.

Tests used:
[1] = tested on: Prostate cancer cells 22RV1; test: Experiment on inhibiting 22RV1 cell proliferation (CellTiter-Glo); assay type: cell-based; settings: Homo sapiens, 168 h, 22RV1 cells, 7 days incubation, read-out: IC50 for inhibition of 22RV1 cells
Description: Prostate cancer cells 22RV1 were purchased from ATCC, the cell medium was RPMI 1640 + 10% FBS, and the cells were cultured in an incubator at 37° C. under 5% CO2. On day 1, the cells in an exponential phase were collected. With a 1% css-FBS phenol red-free medium, the cell suspension was adjusted to a corresponding concentration, plated at 2000 cells/well and incubated overnight. On day 2, compounds at different concentrations were added, and the plate was placed in the incubator and incubated for another 7 days. After the incubation was completed, according to operation instructions for a CellTiter-Glo kit (Promega, G7573), 50 µL of CellTiter-Glo reagents, which were already pre-melted and equilibrated to room temperature, were added to each well, and the mixtures were uniformly mixed for 2 min using a microplate shaker. The plate was placed at room temperature for 10 min, and then […] signal values were measured using a microplate reader (PHERAstar FSX). The results were processed according to formula (2), the inhibition rate of the compound at different concentrations was calculated, and the IC50 value of the compound with an inhibition rate of 50% was calculated using origin9.2 software with DoseResp function, wherein RLUcompound was the readout of the treated group, and RLUcontrol was the average value of the DMSO solvent control group.

[2] = Pharmacokinetic experiment in rats; assay type: in vivo; settings: male SD rats, i.g. 20 mg/kg
Description: Objective: in this experiment, a single dose of each test compound was administered to SD rats intravenously and intragastrically, the concentrations of the test compound in plasma of rats were measured, and the pharmacokinetic characteristics and bioavailability of the test compound in rats were evaluated.
Experimental animals: male SD rats, 200-250 g, 6-8 weeks old, 6 rats/compound, purchased from CHENGDU DOSSY EXPERIMENTAL ANIMALS CO., LTD.
Experimental method: on the day of the experiment, six SD rats were randomly grouped according to their body weights. The animals were fasted but with water available for 12 to 14 hours one day before the administration, and were fed 4 h after the administration.
Sampling: before and after the administration, 0.1 mL of blood was taken from the orbit of the rats under isoflurane anesthesia and placed in an EDTAK2 centrifuge tube. Centrifugation was carried out at 5000 rpm at 4° C. for 10 min, and the plasma was collected.
Time points for plasma collection in G1 and G2 groups: 0, 5 min, 15 min, 30 min, 1 h, 2 h, 4 h, 6 h, 8 h, and 24 h.
Before analysis and detection, all samples were stored at -80° C. The samples were analyzed quantitatively by LC-MS/MS.

[3] = tested on: Prostate cancer cells VCaP; test: Experiment on inhibiting VCaP cell proliferation (CellTiter-Glo, with 0.1 nM R1881); assay type: cell-based; settings: Homo sapiens, 168 h, read-out: GI50 for inhibition of VCaP cells
Description: Prostate cancer cells VCaP were purchased from ATCC, the cell medium was 1640 + 10% FBS, and the cells were cultured in an incubator at 37° C. under 5% CO2. On day 1, the cells in an exponential phase were collected. With a 1% css-FBS phenol red-free medium, the cell suspension was adjusted to a corresponding concentration, plated into T0 wells at 7500 cells/well and incubated for 3 days. After the incubation was completed, R1881 at a final concentration of 0.1 nM and compounds at different concentrations were added, and the plate was placed in the incubator and incubated for another 7 days. On the day of the addition, T0 plate was detected using a CellTiter-Glo kit and recorded as RLU0. After the incubation was completed, 100 µL of mediums was pipetted from each well. According to operation instructions for a CellTiter-Glo kit (Promega, G7573), 50 µL of CellTiter-Glo reagents, which were already pre-melted and equilibrated to room temperature, were then added to each well, and the mixtures were uniformly mixed for 2 min using a microplate shaker. The plate was placed at room temperature for 10 min, and then […] signal values were measured using a microplate reader (PHERAstar FSX). The results were processed according to formula (1), the inhibition rate of the compound at different concentrations was calculated, and the GI50 value of the compound with an inhibition rate of 50% was calculated using origin9.2 software, wherein RLU compound was the readout of the treated group, and RLUcontrol was the average value of the solvent control group.

[4] = VCaP cells, 0.1 nM R1881, 7 days incubation, CellTiter-Glo

| Structure (SMILES) | GI50 [3, 4] | also measured |
| --- | --- | --- |
| CC(C)(C(=O)Nc1ccc(C#N)c(C(F)(F)F)c1)n1cc(C#CC2CN(c3ccc4c(c3)C(=O)N(C3CCC(=O)NC3=O)C4=O)C2)cn1 (stereo not shown) [Compound 9, N-(4-cyano-3-(trifluoromethyl)phenyl)-2-(4-((1-(2-(2,6-dioxopiperidin-3-yl)-1,3-dioxoisoindolin-5-yl)azetidin-3-yl)ethynyl)-1H-pyrazol-1-yl)-2-methylpropanamide] | – | IC50 [1]: 78 nM; Oral bioavailability [2]: Yes; AUC(0-t) ([2]; rat, po, plasma): 45600 ± 3720 ng·h/mL; half-life ([2]; rat, po, plasma): 24 ± 10 h; GI50 ([3]; VCaP): 180 nM |
| N#Cc1ccc(NC(=O)C2(n3cc(C#CC4CN(c5ccc6c(c5)C(=O)N(C5CCC(=O)NC5=O)C6=O)C4)cn3)CCC2)cc1C(F)(F)F (stereo not shown) [Compound 7, N-[4-cyano-3-(trifluoromethyl)phenyl]-1-[4-[2-[1-[2-(2,6-dioxo-3-piperidyl)-1,3-dioxo-isoindolin-5-yl]azetidin-3-yl]ethynyl]pyrazol-1-yl]cyclobutanecarboxamide] | 470 nM | – |
| CC(C)(C(=O)Nc1ccc(C#N)c(C(F)(F)F)c1)n1cc(C2CCN(CC3CCN(c4ccc5c(c4)C(=O)N(C4CCC(=O)NC4=O)C5=O)C3)CC2)cn1 (stereo not shown) [Compound 2, N-(4-cyano-3-(trifluoromethyl)phenyl)-2-(4-(1-((1-(2-(2,6-dioxopiperidin-3-yl)-1,3-dioxoisoindolin-5-yl)pyrrolidin-3-yl)methyl)piperidin-4-yl)-1H-pyrazol-1-yl)-2-methylpropanamide] | 4790 nM | – |
| CC(C)(C(=O)Nc1ccc(C#N)c(C(F)(F)F)c1)n1cc(C2CCN(C3CCC4(CC3)CN(c3ccc5c(c3)C(=O)N(C3CCC(=O)NC3=O)C5=O)C4)CC2)cn1 (stereo not shown) [Compound 3, N-(4-cyano-3-(trifluoromethyl)phenyl)-2-(4-(1-(2-(2-(2,6-dioxopiperidin-3-yl)-1,3-dioxoisoindolin-5-yl)-2-azaspiro[3.5]nonan-7-yl)piperidin-4-yl)-1H-pyrazol-1-yl)-2-methylpropanamide] | 3090 nM | – |
| N#Cc1ccc(NC(=O)C2(n3cc(C4CCN(CC5CCN(c6ccc7c(c6)C(=O)N(C6CCC(=O)NC6=O)C7=O)C5)CC4)cn3)CCC2)cc1C(F)(F)F (stereo not shown) [Compound 4] | 1810 nM | – |
| CC(C)(C(=O)Nc1ccc(C#N)c(C(F)(F)F)c1)n1cc(C2CCN(c3ccc4c(c3)C(=O)N(C3CCC(=O)NC3=O)C4=O)CC2)cn1 (stereo not shown) [Compound 5, N-(4-cyano-3-(trifluoromethyl)phenyl)-2-(4-(1-(2-(2,6-dioxopiperidin-3-yl)-1,3-dioxoisoindolin-5-yl)piperidin-4-yl)-1H-pyrazol-1-yl)-2-methylpropanamide] | 1910 nM | – |
| CC(C)(C(=O)Nc1ccc(C#N)c(C(F)(F)F)c1)n1cc(C#CC2CCN(c3ccc4c(c3)C(=O)N(C3CCC(=O)NC3=O)C4=O)CC2)cn1 (stereo not shown) [Compound 10, N-(4-cyano-3-(trifluoromethyl)phenyl)-2-(4-((1-(2-(2,6-dioxopiperidin-3-yl)-1,3-dioxoisoindolin-5-yl)piperidin-4-yl)ethynyl)-1H-pyrazol-1-yl)-2-methylpropanamide] | 330 nM | – |
| N#Cc1ccc(NC(=O)C2(n3cc(C#CC4CN(C5CN(c6ccc7c(c6)C(=O)N(C6CCC(=O)NC6=O)C7=O)C5)C4)cn3)CCC2)cc1C(F)(F)F (stereo not shown) [Compound 6, N-[4-cyano-3-(trifluoromethyl)phenyl]-1-[4-[2-[1-[1-[2-(2,6-dioxo-3-piperidyl)-1,3-dioxo-isoindolin-5-yl]azetidin-3-yl]azetidin-3-yl]ethynyl]pyrazol-1-yl]cyclobutanecarboxamide] | 1690 nM | – |
| CC(C)(C(=O)Nc1ccc(C#N)c(C(F)(F)F)c1)n1cc(C#CC2CN(C3CN(c4ccc5c(c4)C(=O)N(C4CCC(=O)NC4=O)C5=O)C3)C2)cn1 (stereo not shown) [Compound 8, N-(4-cyano-3-(trifluoromethyl)phenyl)-2-(4-((1′-(2-(2,6-dioxopiperidin-3-yl)-1,3-dioxoisoindolin-5-yl)-[1,3′-biazetidin]-3-yl)ethynyl)-1H-pyrazol-1-yl)-2-methylpropanamide] | 3960 nM | – |
